Consider 36 compounds from EP0429987B1, “5,11-Dihydro-6H-dipyrido[3,2-b:2',3'-e] [1,4]diazepines and their use in the prevention or treatment of HIV infection” (priority 1989, dated 1991).

Broadly, the CC50 is the concentration at which the toxic effect on the cells reaches its halfway point.

Molecules are shown by their SMILES. Read-outs that look alike come from different tables or passages of the source.

Series [1] addresses T1, HIV-1 RT (Human immunodeficiency virus type 1 group M subtype B, UniProt P03367).
T1 construct: Reverse transcriptase enzyme from the LAV strain of Human Immunodeficiency Virus (HIV-1) (1) was isolated; made in house; host or cells: E. coli JM109, clone pBRTprtl+ in vector pIBI21 (lac promoter, IPTG induction)
Briefly: Reverse Transcriptase (RT) Assay: inhibition of RNA-dependent DNA polymerase activity. Type of series: biochemical. The conditions noted are these: for inhibition at 10 µg/mL: read-out: RT Assay % inhibition @ 10 µg/ml; for inhibition at 1 µM: read-out: RT Assay % inhibition. An excerpt: Utilizing the Reverse Transcriptase (RT) Assay described below, compounds can be tested for their ability to inhibit the RNA-dependent DNA polymerase activity of HIV-1 RT.
Among the enzymes for which Human Immunodeficiency Virus (HIV-1) encodes is a reverse transcriptase (1), so-named because it transcribes a DNA copy from an RNA template. This activity can be quantitatively measured in a cell-free enzyme assay, which has been previously described (2), and is based upon the observation that reverse transcriptase is able to use a synthetic template [poly r(C) primed with oligo d(G)] to transcribe a radio-labelled, acid-precipitable DNA strand utilizing ^3H-dGTP as a substrate.
Reverse transcriptase enzyme from the LAV strain of Human Immunodeficiency Virus (HIV-1) (1) was isolated from the bacterial strain JM109 (3) expressing the DNA clone pBRTprtl+ (2) which is under the control of the lac promotor in the expression vector pIBI21 (4). An overnight culture grown in 2XYT medium (37°C, 225 rpm) (5) supplemented with 100 µg/ml ampicillin for positive selection is inoculated at a 1:40 dilution into M9 medium supplemented with 10µg/ml thiamine, 0.5% casamino acids, and 50 µg/ml ampicillin (5). The culture is incubated (37°C, 225 rpm) until it reaches an OD540 of 0.3-0.4. At that time the repressor inhibitor IPTG (isopropyl β-D-thiogalactopyranoside) is added to 0.5mM, and the mixture is incubated for 2 additional hours. Bacteria are pelleted, resuspended in a 50mM Tris, 0.6mM EDTA, 0.375M NaCl buffer and digested by the addition of lysozyme (1mg/ml) for 30 minutes on ice. The cells are lysed by the addition of 0.2% NP-40 and brought to 1M NaCl.
After removal of the insoluble debris by centrifugation, the protein is precipitated by the addition of 3 volumes of saturated aqueous ammonium sulfate. The enzyme is pelleted, resuspended in RT buffer (50mM Tris pH 7.5, 1mM EDTA, 5mM DTT, 0.1% NP-40, 0.1M NaCl, and 50% glycerol), and stored at -70°C for further use.
The 2X concentrated stock reaction mixture is aliquoted and stored at -20°C. […] This enzyme assay has been adapted to a 96 well microtiter plate system, and has been previously described (6). Tris buffer (50 mM, pH 7.4), vehicle (solvent diluted to match the compound dilution), or compounds in vehicle are dispensed into 96-well microtiter plates (10µl/well; 3 wells/ compound). The HIV-1 RT enzyme is thawed, diluted in 50mM Tris pH 7.4 so that fifteen µl of diluted enzyme contain 0.001 Unit (one unit is that amount of enzyme to transform 1 micromole of substrate per minute at 25°C), and fifteen µl are dispensed per well. Twenty µl of 0.12-0.5M EDTA are added to the first three wells of the microtiter plate. EDTA chelates the Mg^++ present and prevents reverse transcription. This group serves as background polymerization which is subtracted from all other groups. Twenty-five µl of the 2X reaction mixture are added to all wells and the assay is allowed to incubate at room temperature for 60 minutes. The assay is terminated by precipitating the DNA in each well with 50µl of 10% trichloracetic acid (TCA) (10% w/v) in sodium pyrophosphate (1% w/v). The microtiter plate is incubated for 15 minutes at 4°C and the precipitate is fixed onto #30 glass fiber paper (Schleicher & Schuell) using a Skatron semi-automatic harvester. The filters are then washed with additional TCA (5%) containing sodium pyrophosphate (1%), rinsed with aqueous ethanol (70%), dried, and transferred to scintillation vials (6). Each vial receives 2 mls of scintillation cocktail and is counted in a Beckman beta counter.
The calculation for percent inhibition is as follows: %inhibition =(CPM Mean Test Value - CPM Mean Control Value X100)/(CPM Mean Control Value) [formula]

Series [2] in a line: MTT Assay for Cellular Cytotoxicity. To be noted: human, h9 cells. As for the experimental part: In order to roughly assess the cytotoxicity of the compounds provided by the invention, several such compounds were tested in the MTT Cellular Cytotoxicity Assay described below.
The MTT [3-(4,5-dimethylthiazol-2-yl)-2,5 diphenyl tetrazolium bromide) assay is based on cleavage of tetrazolium bromide by metabolically active cells, resulting in a highly quantitative blue color. This assay has been previously described (1) but has been optimized for the purposes of the testing reported herein.
The H9 cell line (2), an established human lymphoma suspension cell line grown in RPMI 1640 supplemented with 10% fetal bovine serum, is used as the target cell line in the assay. Cells (100 µl) are plated in microtest plate wells at a concentration of 10^5 cells per ml in the presence of varying concentrations of inhibitor. The cells are incubated at 37°C in a humidified CO2 incubator. Five days later, 20µl of MTT (5mg/ml in RPMI 1640, sonicated, 0.2 micron filtered, and stored at 4°C) is added to each well. After 4 hours additional incubation at 37°C, 60µl of Triton-X is added to each well and thoroughly mixed to aid the solubilization of the crystals. Absolute ethanol (5µl) is added to each well and the resulting mixture is incubated for 30 minutes at 60°C and immediately read on a plate reader (Dynatech) at a wavelength of 570nm.
Data from this assay are used to generate a nonlinear regression analysis which yields an EC50.

Series [3] has as its system HTLV-IIIB strain of HIV-1. The experiment in a line: Human T-Cell Culture Assay: inhibition of syncytia formation in c8166 cells. Type of series: cell-based. The conditions noted are these: Human immunodeficiency virus 1, IIIB, 96 h, four days after virus challenge. The method, then: In order to confirm that compounds which are active in the RT Assay also have the ability to inhibit HIV replication in a living system, compounds according to the invention were also tested in the human T-Cell Culture Assay described below.
Assay Theory: Formation of syncytia is a feature of in vitro cultures of CD4+ T-cells infected with HIV-1. In this assay, T-cells are treated with a putative replication inhibiting compound and then infected with HIV-1. After incubation, the culture is checked for the formation of syncytia. The absence or reduction in the number of syncytia is used as a measure of the test compound's ability to inhibit HIV replication.
Assay Method: The target cells, designated c8166, are a sub-clone of human lymphoma cells of T-cell origin and are established at an initial density of 5x10^4 per 100 ul in RPMI 1640 (+ 10% fetal bovine serum) culture medium in 96 well flat bottom plates. A selected amount of test compound, dissolved in DMSO, is included. After 24 hours, 50-100 TCID50's (the dose that results in induced effect in 50% of test cultures) of the HTLV-IIIB strain of HIV-1 (2) are inoculated into each culture. Control cultures receive compound or virus only. Four days after virus challenge, cultures are visually examined for the frequency and distribution of virus-induced giant cell syncytia. The percent inhibition by the test compound is determined by comparison with control values. Confirmation of the presence or absence of virus replication is accomplished by harvesting the cell free culture fluids from all experimental groups to determine the presence or absence of infectious progeny through the induction of syncytia formation in secondary human T-cell cultures after 3 days.

`CCN1c2ncccc2C(=O)N(C)c2ccc(N3CCCC3)nc21` [Example 6, 5,11-Dihydro-11-ethyl-5-methyl-2-(N-pyrrolidino)-6H-dipyrido[3,2-b:2',3'-e][1,4]diazepin-6-one] gave an inhibition at 1.25 µM in series [1] (@ 1.25µM (footnote +)) of 91%. In series [2], this compound returned a CC50 at 120 h of 45 µM. Moreover, in series [3], the inhibition at 3 µg/mL was determined as 100%. With `Cc1ccnc2c1NC(=O)c1cccnc1N2C1CC1` [Example 3, 11-Cyclopropyl-5,11-dihydro-4-methyl-6H-dipyrido[3,2-b:2',3'-e][1,4]diazepin-6-one], the “RT Assay % inhibition @ 10 µg/ml” value in series [1] (@ 10 µg/ml) is given as 100%. In series [2], the CC50 at 120 h came out at 250 µM. Besides, the inhibition at 3 µg/mL in series [3] was 100%.

Turning to `CCN1c2ncccc2C(=O)Nc2c(C)ccnc21` [Example 2, 5,11-Dihydro-11-ethyl-4-methyl-6H-dipyrido-[3,2-b:2',3'-e][1,4]diazepin-6-one], the inhibition at 10 µg/mL in series [1] came to 100%. The compound further came in with a CC50 at 120 h in series [2] of 200 µM. In series [3], the inhibition at 3 µg/mL stood at 100%.

With `Cc1ccnc2c1NC(=S)c1cccnc1N2C1CC1` [Example 42, 5,11 Dihydro-6H-11-cyclopropyl-4-methyl-dipyrido[3,2-b:2',3'-e][1,4]diazepin-6-thione], the inhibition at 1 µM in series [1] amounted to 90%.

As to `Cc1cc(C)c2c(n1)N(C1CC1)c1ncccc1C(=O)N2` [Example 10], the inhibition at 1 µM in series [1] was 85%. Consider `CCN1c2nc(N(C)C)ccc2NC(=O)c2cccnc21` [Example 63], for which the inhibition at 1 µM in series [1] (@ 1µM (footnote *)) is 98%. `O=C1Nc2cccnc2N(C2CCC2)c2ncccc21` [Example 31]: in series [1], the inhibition at 10 µg/mL amounted to 99%. With `CCN1c2ncccc2C(=O)Nc2c(C(F)(F)F)cc(Cl)nc21` [Example 30], the inhibition at 10 µg/mL in series [1] came to 100%. Take `CN1C(=O)c2cccnc2N(S(C)(=O)=O)c2ncccc21` [Example 48]: the inhibition at 10 µg/mL in series [1] is 77%.

Consider `O=C1Nc2cccnc2N(C2CC2)c2ncccc21` [Example 18], for which, in series [1], the inhibition at 10 µg/mL came to 99%. Turning to `CC[C@@H](C)N1c2ncccc2NC(=O)c2cccnc21` [Example 21], the inhibition at 10 µg/mL in series [1] stood at 85%.

Turning to `CCN1c2ncccc2C(=O)N(C)c2cc(C)c(C)nc21` [Example 22], the inhibition at 10 µg/mL in series [1] came to 100%. Consider `CCN1c2ncccc2NC(=O)c2c1nc(C)c(Cl)c2C` [Example 46], for which, in series [1], the inhibition at 10 µg/mL came out at 44%. Regarding `CN1C(=O)c2cccnc2N(C#N)c2ncccc21` [Example 43], in series [1], the inhibition at 10 µg/mL worked out at 44%.

For the compound `CCN1c2ncccc2C(=O)N(C)c2ccc(N3CC=CC3)nc21` [Example 26], the inhibition at 1 µM in series [1] (@ 1µM (footnote *)) is 86%. `CCN1c2ncc([N+](=O)[O-])cc2C(=O)N(C)c2cc(Cl)c([N+](=O)[O-])nc21` [Example 40]: the inhibition at 1 µM in series [1] stood at 0%. On to `C=COC(=O)N1C(=O)c2cccnc2N(C2CC2)c2nccc(C)c21` [Example 52], for which, in series [1] (@ 1µM (footnote *)), the inhibition at 1 µM was 72%.

Regarding `CCN1c2ncccc2C(=O)N(C)c2ccc(N3CCCCC3)nc21` [Example 57], the inhibition at 1 µM in series [1] (@ 1µM (footnote *)) was 66%.

In the case of `CON1C(=O)c2cccnc2N(C2CC2)c2nccc(C)c21` [Example 53], the inhibition at 1 µM in series [1] (@ 1µM (footnote *)) was found to be 17%. In the case of `CN1C(=O)c2cccnc2N(C2CCCC2)c2ncccc21` [Example 28], the inhibition at 1 µM in series [1] (@ 1µM (footnote *)) came out at 34%. Regarding `CCN1c2ncc(N)cc2C(=O)N(C)c2cccnc21` [Example 65, 8-Amino-5,11-dihydro-11-ethyl-5-methyl-6H-dipyrido[3,2-b:2',3'-e] [1,4]diazepin-6-one hemihydrate], the inhibition at 1 µM in series [1] (@ 1µM (footnote *)) worked out at 82%.

`CCN1c2ncccc2NC(=O)c2cccnc21` [Example 14]: in series [1], the inhibition at 10 µg/mL is 99%. The compound also displayed an inhibition at 3 µg/mL in series [3] of 100%.

For the compound `CCN1c2ncccc2C(=O)N(C)c2cc(Cl)c([N+](=O)[O-])nc21` [Example 8], the inhibition at 1 µM in series [1] (@ 1µM (footnote *)) was 40%. Consider `CCc1ccnc2c1NC(=O)c1cccnc1N2C1CC1` [Example 11], for which the inhibition at 1 µM in series [1] (@ 1µM (footnote *)) was 76%. Take `CC[C@H](C)N1c2ncccc2NC(=O)c2cccnc21` [Example 23]: the inhibition at 10 µg/mL in series [1] is 88%. Take `CCN1c2ncccc2C(=O)N(C)c2ccc(N(C)Cc3ccc(OC)cc3)nc21` [Example 36]: the inhibition at 1 µM in series [1] (@ 1µM (footnote *)) was 64%. Take `Cc1ccnc2c1NC(=O)c1c(O)ccnc1N2C1CC1` [Example 41]: in series [1] (@ 1µM (footnote *)), the inhibition at 1 µM was determined as 32%. On to `Cc1ccnc2c1N(C)C(=O)c1cccnc1N2C1CC1` [Example 19], for which the inhibition at 1 µM in series [1] (@ 1µM (footnote *)) came out at 50%. The same measure, in the same setting: to `CCN1c2ncc(N=[N+]=[N-])cc2C(=O)N(C)c2cccnc21` [Example 16] belongs 63%. Turning to `CCN1c2ncccc2C(=O)N(C)c2cc(Cl)c(N)nc21` [Example 49], the inhibition at 1 µM in series [1] (@ 1µM (footnote *)) was determined as 52%. With `C=CCN1C(=O)c2cccnc2N(C2CC2)c2nccc(C)c21` [Example 50], in series [1] (@ 1µM (footnote *)), the inhibition at 1 µM turned out to be 44%. `C=CCNc1ccc2c(n1)N(CC)c1ncccc1C(=O)N2C` [Example 37]: the inhibition at 1 µM in series [1] (@ 1µM (footnote *)) was 70%. Consider `COc1ccnc2c1NC(=O)c1cccnc1N2C1CC1` [Example 35], for which the inhibition at 10 µg/mL in series [1] worked out at 91%. Turning to `CN1C(=O)c2cccnc2N(C2CC2)c2ncccc21` [Example 47], the inhibition at 10 µg/mL in series [1] was determined as 100%. Besides, the inhibition at 3 µg/mL in series [3] worked out at 100%. For the compound `CN1C(=O)c2cccnc2N(CC2CC2)c2ncccc21` [Example 20], in series [1], the inhibition at 10 µg/mL was 93%. `CCN1c2ncccc2C(=O)N(C)c2c(C)cc(N3CCCC3)nc21` [Example 25]: in series [1] (@ 1µM (footnote *)), the inhibition at 1 µM is 94%.
